Usually IC50 stands for the midpoint of a concentration-inhibition curve.

Experiment [1] relates to 4T1 cells. The experiment can be described thus: MTT cytotoxicity assay. Format: cell-based. To be noted: Mus musculus, read-out: IC50 4T1. The method, then:
(§1) The cytotoxicity of Rhein-DCA conjugate was performed on various cancer cell lines, including breast cancer (4T1 and MCF-7), cervical cancer (HeLa), and colorectal carcinoma (CT26) via 3-(4,5)-dimethylthiahiazo(-z-y1)-3,5-di-phenytetrazoliumromide (MTT) assay. […] Moreover, the cytotoxicity of these compounds (rhein, DCA, R + D and Rhein-DCA) for normal cells (293T) was lower than that of those tested cancer cells.
(§2) Mouse breast cancer 4T1 cells and Mouse colorectal carcinoma CT26 cells were purchased from Haixing Biosciences Co., Ltd (Jiangsu, P. R. China), and cultured in complete RPMI-1640 medium supplemented with 10% FBS and 1% Penicillin / Streptomycin in a cell incubator (37 °C in 95% air and 5% CO2 atmosphere). Human breast cancer MCF-7 cells, Human cervical carcinoma HeLa cells and Human embryonic kidney 293T cells were obtained from the China Center for Type Culture Collection (CCTCC). MCF-7 and HeLa cells were cultured in DMEM medium containing 10% FBS and 1% Penicillin / Streptomycin and then cultured in a cell incubator (37 °C in 95% air and 5% CO2 atmosphere).
(§3) The cytotoxicity of rhein, DCA, the mixture of rhein and DCA (R + D) and Rhein-DCA conjugate was evaluated on HeLa, MCF-7, CT26, 4T1 and 293T cell lines by MTT assay. Cells were seeded in 96-well plates at a density of 3 × 10^3 cells per well in the corresponding complete culture medium and cultured for 24 h. Then cells were incubated with 200 μL fresh medium containing the respective desired concentrations of rhein, DCA, R + D (with the concentrations being 100, 66.7, 44.4, 29.6, 19.8, 13.2, 8.8, 5.9, 3.9, 2.6, 1.7 and 1.2 μM, respectively) and Rhein-DCA conjugate (with the concentrations being 29.6, 19.8, 13.2, 8.8, 5.9, 3.9, 2.6, 1.7, 1.2, 0.8, 0.5 and 0.3 μM, respectively). After 72 h of incubation, 20 μL of MTT solution (5 mg/mL) was added to each well and the plates were cultured for another 4 h. The medium was carefully removed, and 110 μL of DMSO was added into per well to dissolve the formazan. The absorption densities at 590 nm were recorded with microplate reader. The quoted IC50 values were presented as the mean ± standard deviation.

Another experiment has as its system CT26 cells. The experiment can be described thus: MTT cytotoxicity assay. The experiment is classed as cell-based. As to conditions: Mus musculus, CT26, 72 h, read-out: IC50 CT26. The procedure: as §1, §2, §3
On the technique in general: Formazan colour is commonly taken as a measure of viable cells.

The next experiment deals with HeLa cells. Put plainly: MTT cytotoxicity assay. To be noted: Homo sapiens. The experiment is classed as cell-based. The method, then:
as §1, §2, §3

A further experiment has as its system MCF-7 cells. Put plainly: MTT cytotoxicity assay. The experiment is classed as cell-based. As to conditions: Homo sapiens, read-out: IC50 MCF-7. The procedure:
as §1, §2, §3

The next experiment has as its system 293T cells. Put plainly: MTT cytotoxicity assay, normal cells. As to conditions: Homo sapiens, HEK-293T, read-out: IC50 293T. Format: cell-based. The method, then:
as §1, §2
as §3, with “The quoted IC50 values were presented as the mean ± standard deviation.” left out

The test system of experiment [2] is phospho-Ser^293 PDHA1 protein in 4T1 cells. Put plainly: Western blot of phospho-Ser293 PDHA1. Format: cell-based, Mouse. To be noted: 6.25 μM, 24 h, vs control. The method, then:
Then, the phospho-Ser^293 PDHA1 protein level in 4T1 cells, which is regulated by PDK1, was further analyzed with western blot (Figure 2C). […] The conjugate successfully altered glycolysis of 4T1 cells via PDK-PDH axis.
4T1 cells were seeded in 6-well plates at a density of 20 × 10^4 cells per well and cultured for 24 h. Then the cells were treated with rhein, DCA, R + D and Rhein-DCA conjugate, each at a concentration of 6.25 μM for 24 h. Cells were washed twice with PBS and lysed by RIPA total protein extraction solution containing multiple protease inhibitors for 30 min while being maintained on ice. The lysate was centrifuged at 9391 G for 10 min at 4 °C to obtain the total protein solution. The concentrations of total protein were determined with BCA Protein Assay Kit. The protein was further denatured with 5 × protein loading buffer at 100 °C for 15 min. Sodium dodecyl sulfate polyacrylamide gel electrophoresis was conducted to separate the protein and transferred it to PVDF membranes. The PVDF membranes were blocked with 5% skim milk for 30 min at room temperature and incubated with indicated primary antibodies: Anti-Cytochrome C Rabbit pAb (1:1000); Anti-β-actin Rabbit pAb (1:1000); or Anti-PDHA1 Rabbit mAb (phosphoS^293) (1:1000) overnight at 4 °C. The membranes were incubated with HRP conjugated Goat Anti-Rabbit IgG (H+L) (1:5000), respectively, for 30 min at room temperature and then analyzed by chemiluminescence (Clinx,6100).
(A western blot detects proteins with antibodies after separation by electrophoresis.)

Experiment [3] deals with 4T1 cells. The experiment can be described thus: RNA sequencing and analysis (DEGs, GSEA). Format: cell-based, Mouse. To be noted: 6.25 μM, 12 h, RNA-seq. The method, then: To understand the effect of Rhein-DCA conjugate on the energy flow of glycolysis in cancer cells, we performed RNA sequencing analysis on 4T1 cell lines to analyze the genome. After various treatments for 12 h, all samples were clustered via principal component analysis (PCA) (Figure S12). […] Furthermore, the DEGs involved in glycolysis pathway of kyoto encyclopedia of genes and genomes (KEGG) databases were analyzed (Figure 2G). […] But as a pyruvate analogue, DCA led to the inactivation of PDK1 by binding to the pyruvate-binding pocket of PDK1 protein, together with down-regulation of PDK1 gene, thus leading more prominent restraint of glycolysis.
We next investigated whether the OXPHOS route would be further undermined by Rhein-DCA conjugate when the glycolysis was blocked. […] Thus, it was imperative to simultaneously halt glycolysis and OXPHOS to induce energy obstruction and apoptosis.
4T1 cells were seeded in 10 cm culture dishes and cultured until the confluency reached approximately 80%. The cells were treated with PBS, DCA, rhein, and Rhein-DCA conjugate (at a concentration of 6.25 μM) for 12 h. After that, the cells were collected and suspended in TRIzol Reagent for RNA sequencing. All samples were sent to Shanghai Majorbio Bio-pharm Biotechnology Co., Ltd. (Shanghai, P. R. China) for detection. Total RNA was extracted from 4T1 cells and was measured using the nanodrop-2000. The quality of RNA was evaluated by agarose gel electrophoresis and analyzed with Agilent5300. cDNA libraries were constructed according to the Illumina stranded mRNA prep, Ligation (USA) protocol. The DNA was further enriched by PCR amplification and purified by 2% Low Range Ultra Agarose. Clusters were generated by Bridge PCR on the cBot after being quantified by Qubit 4.0, and sequenced with NovaSeq X Plus platform (PE150). The differential expression analysis of various gene expressions was performed using DESeq2. The GO functional enrichment and KEGG pathway analysis were conducted on Goatools and Python scipy software.

[4] abbreviates: 4T1, 72 h treatment, MTT, mean ± S.D., n = 3.
Setting [5] is: 72 h treatment, MTT, mean ± S.D., n = 3.
Where [6] appears, read: 72 h treatment, MTT, mean ± S.D., n = 3, read-out: IC50 HeLa.
[7] abbreviates: MCF7, 72 h treatment, MTT, mean ± S.D., n = 3.
Where [8] appears, read: 72 h treatment, MTT, normal cells, mean ± S.D., n = 3.

The structures appear in SMILES notation. Where two headings read alike, the source gives them in different places.

`O=C(O)C(Cl)Cl` [DCA, Dichloroacetate]: the IC50 with 4T1 cells [1] (4T1, 72 h) was over 100 µM; in the experiment with CT26 cells, over 100 µM; with HeLa cells (72 h, read-out: IC50 HeLa), over 100 µM; in the experiment with MCF-7 cells (MCF7, 72 h), over 100 µM; with 293T cells (72 h), over 100 µM. For the same compound, the “phospho-Ser293 PDHA1 protein level (western blot)” value (“phospho-Ser293 PDHA1 protein level” for short) in experiment [2] is recorded as “slightly downregulation”. Moreover, in the experiment with 4T1 cells [3], the PDK1 gene expression entry is listed as “down-regulated”.
As for `O=C(O)c1cc(O)c2c(c1)C(=O)c1cccc(O)c1C2=O` [Rhein, 4,5-dihydroxyanthraquinone-2-carboxylic acid], the IC50 in the experiment with 4T1 cells [1] (setting [4]) amounted to 41.2 ± 1 µM; in the experiment with CT26 cells (setting [5]), 42.1 ± 3.3 µM; in the experiment on HeLa cells (setting [6]), 68.3 ± 5.1 µM; in the experiment on MCF-7 cells (setting [7]), 79.9 ± 2.3 µM; in the experiment on 293T cells (setting [8]), 126 ± 13.6 µM. Further, the “phospho-Ser293 PDHA1 protein level” value in experiment [2] is given as “no obvious down-regulated trend”. For the same compound, the PDK1 gene expression entry in the experiment with 4T1 cells [3] is on record as “down-regulation”.
With `O=C(OCCOC(=O)C(Cl)Cl)c1cc(O)c2c(c1)C(=O)c1cccc(O)c1C2=O` [Rhein-DCA], the IC50 with 4T1 cells [1] (setting [4]) was determined as 1.7 µM; in the experiment on CT26 cells (setting [5]) it was 2.7 ± 0.1 µM; in the experiment with HeLa cells (setting [6]), 6.7 µM; in the experiment with MCF-7 cells (setting [7]), 3.9 µM; in the experiment with 293T cells (setting [8]) it was 11.7 µM. Besides, the “phospho-Ser293 PDHA1 protein level” value in experiment [2] is given as “lowest expression”. Also, the PDK1 gene expression entry in the experiment on 4T1 cells [3] is given as “significant down-regulation”.

Values taken from paper PMC12036875, “Mitochondria-targeting natural product rhein conjugated with dichloroacetate as the dual inhibitor of glycolysis and oxidative phosphorylation to off energize cancer cells and induce ROS storm” (Theranostics, 2025).
